Reference: patent publication US20250320496A1, “MODULATION OF ABCB11 GENE TRANSCRIPTION USING ANTISENSE OLIGONUCLEOTIDES TARGETING REGULATORY RNAS” (CAMP4 Therapeutics Corporation, priority 2022, published 2025)
Strand notation (5' to 3'): a small letter for the sugar, then the base; units joined by * are phosphorothioate-linked, units joined directly phosphodiester-linked; [ ] holds rarer units or linkages, { } end groups; capitals alone tell only the bases. e = 2'-O-(2-methoxyethyl) (MOE); l = locked nucleic acid (LNA); [5mC] = 5-methylcytosine; d = 2'-deoxy (DNA)

Test system: human ABCB11 mRNA
Experiment: ASO treatment of primary human hepatocytes (PHH), ABCB11 mRNA by RT-qPCR normalized to B2M
Type: cell-based
Details: for ABCB11 mRNA FC (5 μM ASO vs. UNT) / ABCB11 FC mRNA (5 μM ASO vs. untreated): primary human hepatocytes; for ABCB11 mRNA FC (5 μM ASO vs. UNT): normalized to untreated PHHs (UNT); for ABCB11 FC mRNA (5 μM ASO vs. untreated): 5 μM ASO with PO-modifications, normalized to untreated hepatocytes; for upregulation of ABCB11 mRNA: PHHs, Day 3, normalized to untreated PHHs
Protocol: Primary human hepatocytes (PHH) were thawed using Lonza Human Cryopreserved Hepatocyte Thawing Medium and plated in 96-well collagen-coated plates (5.5-6.0×10^4 cells per well). Four hours later, the media was replaced with sterile-filtered QualGro™ Hepatocyte Culture Medium (BioIVT) containing antibiotic supplement, 0.3 mg/ml Matrigel® matrix (Corning®), and ASO at the desired concentration (e.g., 1.25 μM, 2.5 μM, 5 μM, or 10 μM). After 72 hrs., cells were harvested by aspirating media, washing once with phosphate-buffered saline (PBS), and lysed with 150 μl of Buffer RLT lysis buffer (Qiagen®). Plates were frozen at-80° C. during cell lysis. After thawing, total RNA was isolated using the Qiagen RNEasy kit as instructed by manufacturer. cDNA (random-primed) was synthesized from 10 μl of RNA using the LifeTech High Capacity cDNA Reverse Transcription kit. 2 μl of cDNA was used for reverse transcription-quantitative PCR (RT-qPCR) analyses using standard Taqman” reagents from Applied Biosystems™ to measure ABCB11 and CYP7A1 gene expression. Gene expression data was normalized to the housekeeper gene, beta-2-microglobulin (B2M).
To assess the ability of ASOs targeting ABCB11 regRNAs to modulate the expression of human ABCB11, 195 ASOs targeting the human ABCB11 regRNAs were synthesized. These initial ASOs were screened in PHHs at 5 μM to determine their efficacy in increasing human ABCB11 mRNA using quantitative PCR. This initial screen identified 10 ASOs that induced increased expression of ABCB11 mRNA by more than 1.5-fold (as compared to untreated PHHs).

Substance	ABCB11 mRNA FC (5 μM ASO vs. UNT) [fold change]	other results
CO-4515 (antisense eG*e[5mC]*e[5mC]*e[5mC]*eA*eA*eA*eT*eG*eA*eG*eG*eT*eG*eA*eT*eA*e[5mC]*eA*eA)	0.978	
CO-7016 (antisense eA*eG*eT*eG*eA*lG*dG*d[5mC]*lA*dT*d[5mC]*dA*dG*lG*dT*dA*lA*eG*eT*eT*e[5mC]*e[5mC])	1.278	
CO-4043 (antisense eG*e[5mC]*e[5mC]*e[5mC]*eA*e[5mC]*eT*e[5mC]*eT*eG*e[5mC]*eT*e[5mC]*eA*eA*eT*eT*eT*eG*e[5mC])	1.934	
CO-7052 (antisense eT*e[5mC]*eA*e[5mC]*e[5mC]*eT*eT*eG*eG*eT*eT*e[5mC]*e[5mC]*e[5mC]*e[5mC]*e[5mC]*eT*eG*e[5mC]*eT)	1.046	
CO-7002 (antisense eG*eT*eG*lA*eG*eG*e[5mC]*lA*eT*e[5mC]*eA*lG*eG*eT*eA*lA*eG*eT*eT*e[5mC])	1.367	
CO-11221 (antisense eG*eTlG*eGlA*eGl[5mC]*eAlA*eAl[5mC]*eTlA*eGlG*e[5mC]lA*e[5mC]eT*eG)		ABCB11 FC mRNA (5 μM ASO vs. untreated): 2.00 fold change
CO-7195 (eG*eG*eT*eG*eG*eA*dG*d[5mC]*dA*dA*dA*d[5mC]*dT*dA*dG*dG*e[5mC]*eA*e[5mC]*eT*eG*eA; antisense)	1.443	
CO-7186: derivative ASO with additional chemical modifications based on parent ASO CO-4535 (antisense eT*eG*eG*l[5mC]*eG*dT*dT*lA*dT*dT*dA*lA*dT*dT*d[5mC]*lT*eA*e[5mC]*eA*eG)	1.85	
CO-11245 (antisense eG*eTeG*eGlA*eGe[5mC]*eAeA*lAe[5mC]*eTeA*eGlG*e[5mC]eA*e[5mC]eT*eG)		ABCB11 FC mRNA (5 μM ASO vs. untreated): 1.59 fold change
CO-4062 (antisense eG*eA*e[5mC]*e[5mC]*eA*eA*eT*eG*eT*eT*eG*e[5mC]*e[5mC]*eT*eA*eT*eT*eA*eT*eT)	1.108	
CO-3974: ASO targeting the paRNA regRNA RR63 (antisense eT*e[5mC]*eT*eG*eG*eA*eA*eA*eA*eT*eA*eA*eT*eG*e[5mC]*e[5mC]*eT*eT*eT*e[5mC])	1.2	upregulation of ABCB11 mRNA: approximately 1.5 fold
CO-6979 (antisense eG*eT*eG*eA*eG*dG*d[5mC]*dA*dT*d[5mC]*dA*dG*dG*dT*dA*eA*eG*eT*eT*e[5mC])	1.201	
CO-4510 (antisense eG*e[5mC]*e[5mC]*eA*e[5mC]*eA*e[5mC]*eG*eT*eT*eT*e[5mC]*eT*eT*eA*eT*eT*eG*e[5mC]*eG)	1.084	
CO-3998: ASO targeting the paRNA regRNA RR63 (antisense eA*e[5mC]*e[5mC]*e[5mC]*e[5mC]*e[5mC]*e[5mC]*eT*e[5mC]*eA*e[5mC]*e[5mC]*eT*eT*eG*eGeT*eT*e[5mC]*e[5mC])	1.319	upregulation of ABCB11 mRNA: approximately 1.5 fold
CO-7031 (antisense eA*eA*eA*eG*eA*eA*eT*e[5mC]*eG*e[5mC]*eT*eG*eT*eG*eG*e[5mC]*eA*eG*eT*eT)	1.212	
CO-12752 (antisense eG*eTeG*eA*eG*eGe[5mC]*eA*eT*e[5mC]eA*eG*eG*eTeA*eA*eG*eTeT*e[5mC])		ABCB11 FC mRNA (5 μM ASO vs. untreated): 0.99 fold change
CO-7207 (eT*eT*eT*eG*eG*e[5mC]*eG*dT*dT*dA*dT*dT*dA*dA*dT*dT*d[5mC]*eT*eA*e[5mC]*eA*eG*eA*eG; antisense)	1.221	
CO-4493 (antisense eA*eT*eG*eG*eT*eG*eA*eG*eA*eG*eT*eG*eT*eG*eG*eT*eT*e[5mC]*eA*eA)	1.178	
CO-7050 (antisense eT*eT*eG*eG*eT*eT*e[5mC]*e[5mC]*e[5mC]*e[5mC]*e[5mC]*eT*eG*e[5mC]*eT*eG*eT*eG*e[5mC]*eT)	1.026	
CO-11203 (antisense eT*eG*eT*eTeT*eT*eG*e[5mC]eT*eT*eG*eGeT*e[5mC]*eA*eAeG*eA*eG*eG)		ABCB11 FC mRNA (5 μM ASO vs. untreated): 1.38 fold change
CO-4054 (antisense e[5mC]*eG*eT*eT*e[5mC]*eA*eT*e[5mC]*eT*eT*eT*eG*e[5mC]*eT*eT*eA*eT*eA*e[5mC]*eA)	1.269	
CO-12749 (antisense eG*eT*eGeA*eG*eG*e[5mC]*eAeT*e[5mC]*eA*eG*eGeT*eA*eA*eG*eTeT*e[5mC])		ABCB11 FC mRNA (5 μM ASO vs. untreated): 0.95 fold change

Substance	ABCB11 mRNA FC (5 μM ASO vs. UNT) [fold change]	other results
CO-7190: derivative ASO with additional chemical modifications based on parent ASO CO-4535 (antisense eT*eG*lG*e[5mC]*eG*lT*eT*eA*lT*eT*eA*lA*eT*eT*l[5mC]*eT*eA*l[5mC]*eA*eG)	1.641	
CO-4063 (antisense eG*e[5mC]*eA*e[5mC]*e[5mC]*e[5mC]*eA*eA*e[5mC]*e[5mC]*eA*eA*eG*eT*e[5mC]*eT*eT*eG*eA*e[5mC])	1.457	
CO-4497 (antisense eG*eG*eT*eG*eT*eT*eG*eA*eG*eA*eA*e[5mC]*eT*eA*eG*eA*eA*eT*eA*eT)	1.024	
CO-7062 (eT*e[5mC]*lT*eG*lG*eA*lA*eA*lA*eT*lA*eA*lT*eG*l[5mC]*e[5mC]*lT*eT*eT*e[5mC]; antisense)	1.218	
CO-11241 (antisense eG*eTeG*eG*lA*eGe[5mC]*eA*eA*lAe[5mC]*eT*eA*eGlG*e[5mC]*eA*e[5mC]eT*eG)		ABCB11 FC mRNA (5 μM ASO vs. untreated): 1.71 fold change
CO-7045 (antisense eT*eG*eT*eT*eT*dT*dG*d[5mC]*dT*dT*dG*dG*dT*d[5mC]*dA*eA*eG*eA*eG*eG)	1.112	
CO-6676 (antisense eT*eA*eA*eA*eG*e[5mC]*eA*eA*eG*e[5mC]*eT*eG*eT*eG*eT*eG*eG*eA*eA*eG)	1.204	
CO-6978 (antisense eG*eA*eG*eG*e[5mC]*eA*eT*e[5mC]*eA*eG*eG*eT*eA*eA*eG*eT*eT*e[5mC]*e[5mC]*eT)	1.456	
CO-6675 (antisense eA*eG*e[5mC]*eA*eA*eG*e[5mC]*eT*eG*eT*eG*eT*eG*eG*eA*eA*eG*eG*eA*e[5mC])	1.346	
CO-7051 (antisense eA*e[5mC]*e[5mC]*eT*eT*eG*eG*eT*eT*e[5mC]*e[5mC]*e[5mC]*e[5mC]*e[5mC]*eT*eG*e[5mC]*eT*eG*eT)	1.201	
CO-7059 (eT*e[5mC]*eT*lG*eG*dA*dA*lA*dA*dT*dA*lA*dT*dG*d[5mC]*l[5mC]*eT*eT*eT*e[5mC]; antisense)	1.023	
CO-7065 (eT*e[5mC]*eT*lG*eG*eA*eA*lA*eA*eT*eA*lA*eT*eG*e[5mC]*l[5mC]*eT*eT*eT*e[5mC]; antisense)	1.262	
CO-7008 (antisense eG*eT*eG*eG*eA*lT*dG*dT*lA*dG*dA*dT*dG*lA*dA*dT*lG*eG*e[5mC]*eA*eA*eG)	1.175	
CO-7010 (antisense eT*eG*eT*eG*eG*eA*eT*eG*eT*eA*eG*eA*eT*eG*eA*eA*eT*eG*eG*e[5mC]*eA*eA*eG*eG)	1.293	
CO-7015 (antisense eA*eG*eT*eG*eA*dG*dG*d[5mC]*eA*dT*d[5mC]*dA*dG*eG*dT*dA*dA*eG*eT*eT*e[5mC]*e[5mC])	1.257	
CO-4044 (antisense eG*eT*eT*eG*eG*eG*eA*eT*eA*eG*e[5mC]*e[5mC]*eT*eG*eA*eA*eT*eT*e[5mC]*e[5mC])	0.974	
CO-7095 (eA*e[5mC]*e[5mC]*l[5mC]*e[5mC]*e[5mC]*e[5mC]*lT*e[5mC]*eA*e[5mC]*l[5mC]*eT*eT*eG*lG*eT*eT*e[5mC]*e[5mC]; antisense)	0.925	
CO-7026 (antisense eA*e[5mC]*eA*eG*eT*eG*eA*eG*e[5mC]*eT*eT*eA*eT*e[5mC]*eT*eG*eG*eA*eA*eA)	1.158	
CO-11232 (antisense eG*eT*lGeG*eAlG*e[5mC]eA*lAeA*e[5mC]lT*eAeG*lGe[5mC]*eAl[5mC]*eT*eG)		ABCB11 FC mRNA (5 μM ASO vs. untreated): 1.72 fold change
CO-4526 (antisense eG*e[5mC]*eT*eT*eG*eT*eG*eA*eT*eG*eT*e[5mC]*e[5mC]*eA*eG*eA*eT*eG*eA*e[5mC])	1.048	
CO-4495 (antisense eT*eG*eG*eT*eA*eT*e[5mC]*e[5mC]*eA*eT*eT*e[5mC]*eA*e[5mC]*eA*eA*eG*eG*eT*eG)	1.07	
